Measured values: US20250213573A1, “PHARMACEUTICAL COMPOSITION COMPRISING JAK INHIBITOR, PREPARATION METHOD THEREFOR AND USE THEREOF” (BEIJING MAXINOVEL PHARMACEUTICALS CO., LTD., priority 2022, published 2025)

Assay: Saturation solubility test of the compound of formula I in different solvents
Format: physicochemical
Settings: thermodynamic from solid
Text: Example 1: Saturation Solubility Test of the Compound of Formula I in Different Solvents

solubility (aqueous buffer, saturation solubility in pH 2 phosphate buffer): 16 µg/mL | solubility (aqueous buffer, saturation solubility in pH 4 phosphate buffer): 1 µg/mL | solubility (aqueous buffer, saturation solubility in pH 6 phosphate buffer): 1 µg/mL | solubility (aqueous buffer, saturation solubility in pH 8 phosphate buffer): 1 µg/mL | solubility (oil or lipid, saturation solubility in Corn oil): 14 µg/mL | solubility (oil or lipid, saturation solubility in Medium chain triglycerides): 75 µg/mL | solubility (oil or lipid, saturation solubility in Oleic acid): 230 µg/mL | solubility (oil or lipid, saturation solubility in Olive oil): 14 µg/mL | solubility (oil or lipid, saturation solubility in Soybean oil): 18 µg/mL | solubility (organic solvent or mixture, saturation solubility in Anhydrous ethanol): 240 µg/mL | solubility (organic solvent or mixture, saturation solubility in Diethylene glycol monoethyl ether): 14000 µg/mL | solubility (organic solvent or mixture, saturation solubility in Dimethyl sulfoxide): 302000 µg/mL | solubility (organic solvent or mixture, saturation solubility in Ethyl acetate): 2340 µg/mL | solubility (organic solvent or mixture, saturation solubility in Glycerol): 70 µg/mL | solubility (organic solvent or mixture, saturation solubility in Polyethylene glycol 400): 26600 µg/mL | solubility (organic solvent or mixture, saturation solubility in Propylene glycol): 990 µg/mL | solubility (saturation solubility in Pure water): 1 µg/mL
Structure (SMILES): CCS(=O)(=O)N1CC(C(CC#N)n2cc(-c3nc(Nc4cnn(C)c4)nc4ccsc34)cn2)C1 (centres unmarked) [Compound of formula I]
